Measured values taken from ChEMBL document CHEMBL1201862, “PubChem BioAssay data set” (2004).
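Where inhibition never reached the appropriate level, the endpoint shown equals the highest concentration tested. Otherwise, values were interpolated linearly from a five-concentration, 48-hour dose response in 96-well plates. GI50: concentration for 50% inhibition of growth.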 Activity calls are given as the source filed them. Rule as the data show it: active = GI50 up to about 1.1 µM and inactive = higher.

Tests used:
Assay in all cases: DTP human tumour cell line panel, 48 h
DMS-273 = test system: DMS-273
XF498 = test system: XF498
LXFL 529 = test system: LXFL 529
KM-20L2 = test system: KM-20L2
DMS-114 = test system: DMS-114
M19-MEL = test system: M19-MEL
HOP-18 = test system: HOP-18
DLD-1 = test system: DLD-1
RXF 631 = test system: RXF 631

SMILES	GI50 (DMS-273)	GI50 (XF498)	GI50 (LXFL 529)	GI50 (KM-20L2)	GI50 (DMS-114)	GI50 (M19-MEL)	GI50 (HOP-18)	GI50 (DLD-1)	GI50 (RXF 631)
COC(=O)c1c(C(=O)OC)c2cc(C(=O)c3ccccc3)ccn2c1Cl	27.6 µM (inactive)	24.3 µM (inactive)	30 µM (inactive)	55 µM (inactive)	23.5 µM (inactive)	32.5 µM (inactive)	–	–	–
Cc1nc2c(o1)/C(=N\c1ccccc1)c1ccccc1C2=O	10.2 µM (inactive)	4.02 µM (inactive)	11.9 µM (inactive)	17.4 µM (inactive)	3.3 µM (inactive)	1.86 µM (inactive)	5.42 µM (inactive)	12.9 µM (inactive)	–
O=C1C=C[C@@]23CC1C(O)C[C@H]2C=Cc1ccccc13 (stereo partly specified)	–	> 100 µM (inactive)	> 100 µM (inactive)	> 100 µM (inactive)	> 100 µM (inactive)	> 100 µM (inactive)	–	45.6 µM (inactive)	–
O=[N+]([O-])c1cccc(C2=NOC(C3CCCCC3)C2)c1 (stereo unspecified)	> 100 µM (inactive)	–	> 100 µM (inactive)	–	> 100 µM (inactive)	> 100 µM (inactive)	> 100 µM (inactive)	> 100 µM (inactive)	> 100 µM (inactive)
CC1=CCC(O)C=CC(C)C(O)C(C)C=C(C)C(=O)c2c(O)c(C)cc3c2C(=O)C(N)=C(NC(=O)/C=C\C=C/C=CC(C)C(O)CC1=O)C3=O (stereo unspecified)	> 100 µM (inactive)	> 100 µM (inactive)	27.8 µM (inactive)	> 100 µM (inactive)	> 100 µM (inactive)	> 100 µM (inactive)	–	> 100 µM (inactive)	–
COc1cc([C@H]2c3cc4c(cc3[C@H](NCc3ccc(F)cc3)C3COC(=O)[C@H]32)OCO4)cc(OC)c1O (stereo partly specified)	1.3 µM (inactive)	2.37 µM (inactive)	16.3 µM (inactive)	3.56 µM (inactive)	3.37 µM (inactive)	7.59 µM (inactive)	26.3 µM (inactive)	7.03 µM (inactive)	2.32 µM (inactive)
O=C1c2ccccc2C(=O)C1(Cl)C1(S(=O)(=O)O)c2ccccc2-c2ccccc21	> 100 µM (inactive)	> 100 µM (inactive)	> 100 µM (inactive)	> 100 µM (inactive)	> 100 µM (inactive)	> 100 µM (inactive)	> 100 µM (inactive)	> 100 µM (inactive)	–
COc1ccc2nc3cc(Cl)ccc3c(NCCCN(CCCl)CCCl)c2c1	0.0161 µM (active)	< 0.01 µM (active)	0.0166 µM (active)	0.0339 µM (active)	< 0.01 µM (active)	0.0443 µM (active)	2.64 µM (inactive)	0.233 µM (active)	0.0118 µM (active)
CC(=O)c1ccc(NC(=O)C(=O)C(C(=O)c2ccc(Cl)c(Cl)c2)C2OC(=O)c3ccccc32)cc1 (stereo unspecified)	22.1 µM (inactive)	22.5 µM (inactive)	11 µM (inactive)	34.4 µM (inactive)	13.4 µM (inactive)	–	12.3 µM (inactive)	23.8 µM (inactive)	–
O=C(c1ccccc1)N1CCN2CCN=C(c3ccccc3)C21c1ccccc1 (stereo unspecified)	> 100 µM (inactive)	–	97.9 µM (inactive)	70.6 µM (inactive)	30.5 µM (inactive)	81.7 µM (inactive)	> 100 µM (inactive)	91 µM (inactive)	–
COc1c(C)cc(O)cc1C=O	> 100 µM (inactive)	–	> 100 µM (inactive)	–	> 100 µM (inactive)	> 100 µM (inactive)	–	> 100 µM (inactive)	> 100 µM (inactive)
COc1ccc(-c2cnoc2-c2ccc(OC)c(OC)c2)cc1OC	0.314 µM (active)	1.75 µM (inactive)	1.83 µM (inactive)	4.66 µM (inactive)	0.441 µM (active)	0.891 µM (active)	6.14 µM (inactive)	2.12 µM (inactive)	–
O=C(/C=C(\O)C(=O)O)/C=C(\O)c1ccc(Cl)cc1	> 100 µM (inactive)	> 100 µM (inactive)	> 100 µM (inactive)	> 100 µM (inactive)	> 100 µM (inactive)	> 100 µM (inactive)	> 100 µM (inactive)	> 100 µM (inactive)	–
O=P(CN1CCOCC1)(c1ccccc1)c1ccccc1	> 100 µM (inactive)	> 100 µM (inactive)	> 100 µM (inactive)	–	> 100 µM (inactive)	> 100 µM (inactive)	–	–	> 100 µM (inactive)
CN(C)c1ccc(/C=C2\CCc3ccccc3C2=O)cc1Br	34.7 µM (inactive)	94.6 µM (inactive)	48.3 µM (inactive)	21.6 µM (inactive)	–	49.4 µM (inactive)	> 100 µM (inactive)	55.5 µM (inactive)	–
Cc1c2n(c(=O)[nH]c1=O)C1OC(CO)C(O2)C1N=[N+]=[N-] (stereo unspecified)	> 100 µM (inactive)	–	> 100 µM (inactive)	> 100 µM (inactive)	> 100 µM (inactive)	> 100 µM (inactive)	–	> 100 µM (inactive)	–
COc1ccc(C2S/C(=C\c3cccc(OC)c3)C(=O)N2NC(=O)Cc2ccccc2)cc1 (stereo unspecified)	> 100 µM (inactive)	–	> 100 µM (inactive)	–	–	> 100 µM (inactive)	> 100 µM (inactive)	> 100 µM (inactive)	–
Cc1cnc2c(C)ccc([N+](=O)[O-])c2c1NCCCN(C)C	> 100 µM (inactive)	–	–	> 100 µM (inactive)	> 100 µM (inactive)	> 100 µM (inactive)	–	–	–
CC(=O)NC1=C(NCCN(C)C)C(=O)c2ccccc2C1=O	11.7 µM (inactive)	13.7 µM (inactive)	15 µM (inactive)	16.4 µM (inactive)	–	7.6 µM (inactive)	–	14.3 µM (inactive)	–
CCc1cc(C(=O)OC)cn1C(=N)c1ccc(Cl)cc1	> 100 µM (inactive)	> 100 µM (inactive)	> 100 µM (inactive)	> 100 µM (inactive)	> 100 µM (inactive)	> 100 µM (inactive)	> 100 µM (inactive)	> 100 µM (inactive)	–
CC1=Nc2ccccc2NC(c2ccoc2)C1 (stereo unspecified)	> 100 µM (inactive)	–	> 100 µM (inactive)	> 100 µM (inactive)	> 100 µM (inactive)	> 100 µM (inactive)	> 100 µM (inactive)	> 100 µM (inactive)	> 100 µM (inactive)
CCCCCCCCOCC(COC(=O)CCCCCCC)OC(=O)CCCCCCC (stereo unspecified)	> 100 µM (inactive)	–	> 100 µM (inactive)	> 100 µM (inactive)	> 100 µM (inactive)	> 100 µM (inactive)	> 100 µM (inactive)	> 100 µM (inactive)	> 100 µM (inactive)
O=[N+]([O-])c1ccc(Sc2c3ccccc3nc3ccccc23)cc1	–	> 100 µM (inactive)	> 100 µM (inactive)	> 100 µM (inactive)	–	> 100 µM (inactive)	> 100 µM (inactive)	> 100 µM (inactive)	> 100 µM (inactive)
CC(=O)c1cccc(NC(=O)C(=O)Nn2c(N)nnc2N)c1	> 100 µM (inactive)	> 100 µM (inactive)	> 100 µM (inactive)	> 100 µM (inactive)	> 100 µM (inactive)	> 100 µM (inactive)	> 100 µM (inactive)	> 100 µM (inactive)	–
Cc1cc(N(CCC#N)CCC#N)ccc1/N=N/c1ccc(Br)cc1	17.8 µM (inactive)	2.22 µM (inactive)	> 48.8 µM (inactive)	3.61 µM (inactive)	20.2 µM (inactive)	> 53.3 µM (inactive)	> 35 µM (inactive)	> 42.7 µM (inactive)	11.1 µM (inactive)
O=C1/C(=C/c2ccccc2)CN(C(=O)C(F)(F)F)C/C1=C\c1ccccc1	1.44 µM (inactive)	–	1.66 µM (inactive)	2.11 µM (inactive)	1.64 µM (inactive)	1.61 µM (inactive)	6.82 µM (inactive)	2.07 µM (inactive)	–
COC1=C2C[C@H](O)C(C)C[C@@]2(OC)OC1=O (stereo partly specified)	> 100 µM (inactive)	> 100 µM (inactive)	> 100 µM (inactive)	–	–	> 100 µM (inactive)	–	> 100 µM (inactive)	> 100 µM (inactive)
